Test results from the supplement of paper PMC10307832.

Key:
Assay in all cases: relative viability (nuclei count vs DMSO), 5 days (fraction); higher = more cells survive
[1] = compound: C1/C(=C\C2=CC=CS2)/C(=O)/C(=C/C3=CC=CS3)/C1 + CC(C)C[C@H](NC(=O)[C@H](Cc1ccccc1)NC(=O)c1cnccn1)B(O)O [Bortezomib] (partner 0.002 µM)
Procedure, shortened: (§1)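 Five library-drug doses in √10 steps were combined with a fixed anchor-drug dose, or a single drug was given alone, by pin tool to lung cancer cell lines in 1536-well plates the day after seeding. Nuclei were stained and counted after 5 days. Relative viability is the nuclei count in treated wells over that in vehicle wells, taken as the median of duplicate plates.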

TPCA-1 + Bortezomib = compound: C1=CC(=CC=C1C2=CC(=C(S2)NC(=O)N)C(=O)N)F [TPCA-1] + CC(C)C[C@H](NC(=O)[C@H](Cc1ccccc1)NC(=O)c1cnccn1)B(O)O [Bortezomib] (partner 0.002 µM)
Procedure, shortened: as §1

TPCA-1 + Crizotinib = compound: C1=CC(=CC=C1C2=CC(=C(S2)NC(=O)N)C(=O)N)F [TPCA-1] + C[C@@H](Oc1cc(-c2cnn(C3CCNCC3)c2)cnc1N)c1c(Cl)ccc(F)c1Cl [Crizotinib] (partner 1 µM)
Procedure, shortened: as §1

TPCA-1 + Dasatinib = compound: C1=CC(=CC=C1C2=CC(=C(S2)NC(=O)N)C(=O)N)F [TPCA-1] + Cc1nc(Nc2ncc(C(=O)Nc3c(C)cccc3Cl)s2)cc(N2CCN(CCO)CC2)n1 [Dasatinib] (partner 0.075 µM)
Procedure, shortened: as §1

Cell Line	relative viability ([1]; first compound 0.2 µM)	relative viability ([1]; first compound 0.6325 µM)	relative viability ([1]; first compound 2 µM)	relative viability ([1]; first compound 6.325 µM)	relative viability ([1]; first compound 20 µM)	relative viability (TPCA-1 + Bortezomib; first compound 0.04 µM)	relative viability (TPCA-1 + Bortezomib; first compound 0.1265 µM)	relative viability (TPCA-1 + Bortezomib; first compound 0.4 µM)	relative viability (TPCA-1 + Bortezomib; first compound 1.265 µM)	relative viability (TPCA-1 + Bortezomib; first compound 4 µM)	relative viability (TPCA-1 + Crizotinib; first compound 0.04 µM)	relative viability (TPCA-1 + Crizotinib; first compound 0.1265 µM)	relative viability (TPCA-1 + Crizotinib; first compound 0.4 µM)	relative viability (TPCA-1 + Crizotinib; first compound 1.265 µM)	relative viability (TPCA-1 + Crizotinib; first compound 4 µM)	relative viability (TPCA-1 + Dasatinib; first compound 0.04 µM)	relative viability (TPCA-1 + Dasatinib; first compound 0.1265 µM)	relative viability (TPCA-1 + Dasatinib; first compound 0.4 µM)	relative viability (TPCA-1 + Dasatinib; first compound 1.265 µM)	relative viability (TPCA-1 + Dasatinib; first compound 4 µM)
NCI-H727	0.783	0.947	1.04	0.698	0.815	1.07	0.707	0.923	0.674	0.696	0.82	0.677	1.05	0.64	0.706	0.425	0.364	0.48	0.361	0.37
HARA	1.23	1.1	1.08	0.89	1.07	1.08	1.13	1.14	1.03	1.07	0.985	0.995	1.11	1.01	0.56	0.298	0.289	0.298	0.257	0.231
NCI-H2228	1.11	0.987	1.44	0.808	0.86	1.01	0.891	0.916	1.12	0.6	0.589	0.489	0.487	0.364	0.277	0.669	0.491	0.521	0.386	0.301
LCLC-97TM1	0.777	0.501	0.737	0.43	0.565	0.654	0.654	0.608	0.475	0.0995	0.347	0.325	0.568	0.28	0.15	0.94	0.679	0.772	0.658	0.717
LC-2-ad	1.03	1.05	1.02	0.871	1.02	1.11	1.01	0.94	1.04	0.371	0.441	0.427	0.464	0.413	0.263	0.79	0.417	0.544	0.524	0.212
SK-LU-1	1.33	1.07	1.68	1.13	1.28	1.26	0.962	1.1	0.879	0.739	0.862	0.667	1.07	0.675	0.556	0.217	0.189	0.209	0.183	0.173
EKVX	1.11	1.02	1.12	0.933	1.1	0.952	0.896	1.19	0.955	0.601	0.979	0.777	1.04	0.97	0.738	0.535	0.542	0.529	0.487	0.627
HCC-827	1.1	1.07	0.993	0.84	1.05	1.06	1.06	1.09	0.964	0.89	0.948	0.924	0.899	0.83	0.567	0.299	0.199	0.391	0.293	0.155
NCI-H650	0.974	0.849	0.961	1.02	0.768	0.877	0.898	0.923	0.326	0.554	0.707	0.522	0.688	0.373	0.382	0.464	0.436	0.409	0.321	0.332
CAL-12T	1.1	1.09	1.18	0.976	1.04	1.07	0.941	1.03	0.767	0.607	0.597	0.588	0.675	0.717	0.381	0.361	0.486	0.571	0.304	0.154
NCI-H2342	–	–	–	–	–	–	–	–	–	–	–	–	–	–	–	0.323	0.323	0.276	0.241	0.294
SW 900	–	–	–	–	–	–	–	–	–	–	–	–	–	–	–	0.768	0.526	0.685	0.307	0.583
IA-LM	0.809	0.909	0.886	0.753	0.665	0.834	0.804	0.847	0.781	0.559	0.767	0.762	0.985	0.667	0.657	–	–	–	–	–
EPLC-272H	0.957	0.903	0.93	1.01	0.839	0.96	0.974	0.962	0.87	0.821	1.02	0.93	0.868	0.888	0.58	0.449	0.33	0.365	0.421	0.301
A-427	1.07	1.08	0.961	0.993	0.981	1.05	0.981	1.08	0.976	1.07	0.856	0.817	1.09	0.879	0.625	0.752	0.621	0.795	0.745	0.454
NCI-H647	0.877	1.09	1.11	0.627	0.912	1.26	0.809	0.954	0.751	0.418	1.24	1.08	1.13	0.882	0.215	0.21	0.15	0.231	0.0911	0.079
NCI-H1975	0.435	0.421	0.361	0.334	0.367	0.327	0.417	0.321	0.437	0.26	0.985	0.863	0.972	0.939	0.691	0.39	0.381	0.368	0.368	0.188
NCI-H358	–	–	–	–	–	–	–	–	–	–	0.759	0.559	0.541	0.39	0.264	0.193	0.135	0.173	0.152	0.117
